Source: patent US20140011755A1, “Cardiac Glycosides for Treating Autoimmune Disease” (Department of Veterans Affairs, priority 2010, published 2014)
“Also recorded” adds a separate entry of the source. Read-outs that look alike come from different tables or passages of the source.

Experiments:
[1] = cited from earlier work; for Half-life: in vivo; for Onset (m): onset of action; for Peak: time to maximal effect
[2] = system: T cell receptor; type: cell-based, mice
Procedure: (§1) Activity was monitored by ^3H-thymidine incorporation as a read-out for proliferation. […] Cell type(s) in the splenocyte population responsive to therapeutic concentrations of cardiac glycoside were determined by identifying the population of cells that responded to a dose-dependent decrease in activity in the presence of stimulant, defined as ligand(s) binding to cognate receptor(s). Activity was analyzed by: ^3H-thymidine or BrdU incorporation to monitor proliferation or by ELISA to monitor cytokine production. Splenic T lymphocytes were isolated by negative selection (MACS, Miltinyi Biotec) and are stimulated with PMA, ConA or through the TCR with anti-CD3/anti-CD28 Dynabeads (Invitrogen) and collagen II (all non-TNFR receptors/pathways). […] Peritoneal and bone marrow-derived macrophages were isolated from CIA mice in the presence of M-CSF growth factor and were stimulated with TNF and CD40 ligand (CD40L). […] Splenic B lymphocytes were isolated by negative selection (MACS, Miltinyi Biotec) and were stimulated with BAFF (BLyS), CD40L or through the BCR with anti-IgM u-chain specific antibodies.

[3] = system: TNF, IL-6 and IL-1beta; assay: Serum cytokine ELISA in CIA treatment groups; type: in vivo; settings: serum from 3 mice per treatment group, ELISA in triplicate
Description: FIG. 9. Serum cytokine levels are similar between vehicle and cardiac glycoside treatment groups. […] The unpaired student t-test was used to assess significance.

[4] = CHCI3/16% aqueous methanol (MeOH); cited from earlier work
[5] = system: TNF-mediated NFκB activity in HeLa cells; assay: NFκB luciferase reporter assay in TNF-stimulated HeLa cells; type: cell-based; settings: pre-treatment 6 hours with 0-500 nM, 50 ng/mL TNF
Procedure: FIG. 8. […] Values represent mean light units produced. Error bars represent SEM, and statistical significance was determined by unpaired T-test. Single and double asterisks represent P-values of 0.01 or 0.001, respectively. […] Samples were harvested at designated time points and were fractionated into nuclear and cytoplasmic lysates (Pierce). Lysates were quantified using BCA (Pierce), and were equally loaded according to total protein. Membranes were probed for levels of nuclear phospho-p65 (ReIA), phospho-ReIB, and histone (histone served as loading control and fractionation method control) and cytoplasmic degradation of IκBα (beta-tubulin served as loading control and fractionation method control).
HeLa cells were co-transfected with the reporter pNFκB-luc and control vector pTAL (Renilla) for 18 h prior to incubation with 0-500 nM cardiac glycoside for 6 h. Cells are stimulated with 50 ng/mL TNF. […] FIG. 8 B).

[6] = system: collagen-induced arthritis (CIA); type: in vivo, DBA1/J mice; settings: for average clinical arthritis scores compared to vehicle, prevention study: first dose one day prior to boost, 0.3 mg/kg digitoxin, 0.03 mg/kg ouabain, […] proscillaridin, 0.35 mg/kg digoxin, […] bufalin, 15 mice per group
[7] = system: rheumatoid arthritis; settings: cited from earlier work
[8] = system: TNFR; type: cell-based, mice; settings: pre-treatment with 3.3 or 33 nM
Procedure: as §1

[9] = molecular target: T1, CD40 (Mus musculus, UniProt P27512); type: cell-based, mice; settings: pre-treatment with 3.3 or 33 nM
T1 construct: Peritoneal and bone marrow-derived macrophages were isolated from CIA mice; endogenous in cells; host or cells: peritoneal and bone marrow-derived macrophages from CIA mice
T1 sequence (P27512 20-289): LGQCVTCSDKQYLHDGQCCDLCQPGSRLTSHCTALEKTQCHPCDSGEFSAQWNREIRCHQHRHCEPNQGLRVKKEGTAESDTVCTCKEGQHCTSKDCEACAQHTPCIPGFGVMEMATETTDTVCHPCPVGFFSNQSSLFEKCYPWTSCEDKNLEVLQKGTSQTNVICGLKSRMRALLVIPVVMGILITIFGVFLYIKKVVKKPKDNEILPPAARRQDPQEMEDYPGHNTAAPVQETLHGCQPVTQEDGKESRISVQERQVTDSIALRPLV
Procedure: as §1

[10] = injectable versus other formulations; cited from earlier work
[11] = system: collagen-induced arthritis (CIA) joints; type: in vivo, DBA1/J mice; settings: cross-sectioned ankle joints, CIA prevention groups
Procedure: FIG. 7. Cardiac glycosides reduce joint pathology in the CIA mouse model for rheumatoid arthritis. Blinded scoring was performed on histologic sections of joints harvested from mice at the end of a CIA prevention study (A-C). Joints derived from three representative mice belonging to each prevention group (A-C) were decalcified, fixed and stained with tolidine blue, followed by scoring by an examiner blinded to treatment status for the severity of synovitis (inflammation), pannus (growth of the synovial lining), and erosions of bone. (D-G) Joints derived from three representative mice belonging to each prevention group were decalcified, fixed, and stained with hematoxylin and eosin. Cross-sectioned ankle joints from vehicle (D), digitoxin (E), ouabain (F) and proscillaridin (G) treated mice are presented. Error bars represent SEM, and asterisks indicate P-values less than 0.05 by Mann-Whitney test.
In treatment studies, mice were randomly enrolled in treatment groups and treatment commenced when the average clinical score was at or above 2. […] Daily dosing commenced upon enrollment at the abovementioned concentrations. […] Double-blinded histopathology scoring was conducted of cross-sectioned joints taken from cardiac glycoside and vehicle recipients. […] The results obtained from these animal studies indicate that cardiac glycosides are effective at reducing the clinical manifestations of disease and reducing joint pathology in mice with collagen arthritis.
The effects of the different cardiac glycoside treatments on CIA pathology was analyzed by histological scoring. Inflammatory cell infiltrate, synovial hyperplasia, pannus formation and articular cartilage and bone deterioration were evaluated in sectioned paws of treated mice at specific time-points throughout the disease course. […] The ELISA was developed and read using BD ELISA development kit. […]

[12] = Serum concentration obtained with experimental dosing regimen, mouse; type: in vivo; settings: 0.2 mg/kg per diem, i.p., experimentally determined
Procedure: Dosing regimens in humans vary according to the cardiac glycoside and constitution thereof. Table 3 depicts representative dosing regimens reported in the literature compared to experimental regiments used in mice that are representative of human dosing. Successful dosing detailed in this application includes but is not limited to 0.03-0.4 mg/kg., or from 0.001 to 5 mg/kg.

[13] = system: anti-type II collagen antibodies; type: in vivo; settings: sera of 6 mice per prevention group, ANOVA
Procedure: FIG. 10. Cardiac glycosides reduce immunoglobulin levels in CIA mice. ELISAs for anti-type II collagen antibodies were performed on sera derived from 6 representative mice of each prevention group (A, B). Isotype specific antibodies for IgG1 and IgG2a (A) and IgM (B) were utilized. […] Statistical analysis was performed using ANOVA and asterisks indicate points at which the P-values were less than 0.001.
The effects of the different cardiac glycoside treatments on CIA pathology was analyzed by histological scoring. Inflammatory cell infiltrate, synovial hyperplasia, pannus formation and articular cartilage and bone deterioration were evaluated in sectioned paws of treated mice at specific time-points throughout the disease course. Histopathology scores of inflammation, pannus formation and bone and cartilage erosions were conducted by a blinded investigator on toludine blue-stained cross sections of fixed leg joints from representative mice in vehicle and glycoside groups. Pathology scoring for each of the three categories are on a scale of 0-4 with grade 0=normal, 1=mild inflammation, hyperplasia of the synovial lining, cartilage destruction without bone erosion, grades 2 to 4=increasing degrees of inflammatory cell infiltrate, synovial hyperplasia, pannus formation and cartilage and bone destruction. Error bars represent SEM and statistics were performed using the Mann-Whitney test. At the endpoint, mice are bled and serum is collected from representative mice and stored at −80 C until use. To determine anti-collagen II antibody levels and to characterize isotype prevalence, bovine collagen II (Chondrex) was coated O/N at 4 C on an ELISA plate, washed and incubated with 100 uL of 1:10 dilution of each serum sample (in triplicate) for 2 h at RT. Wells were washed and incubated with anti-mouse IgM u-chain specific (Jackson), anti-mouse IgG1, or anti-mouse IgG2a (Southern Biotech) for 1 h at RT. The ELISA was developed and read using BD ELISA development kit. Statistical analysis was performed using the two-tailed ANOVA and asterisks represent P-values less than 0.01.

[14] = system: MRL-Ipr splenic B cells; assay: ANA production by MRL-Ipr splenic B cells in vitro; type: cell-based, mice; settings: B cells pre-treated with 0.8 nM mifepristone, digitoxin 33 nM

Compound: C[C@H]1O[C@@H](O[C@H]2CC[C@@]3(C)[C@H](CC[C@@H]4[C@@H]3C[C@@H](O)[C@]3(C)[C@@H](C5=CC(=O)OC5)CC[C@]43O)C2)C[C@H](O)[C@@H]1O[C@H]1C[C@H](O)[C@H](O[C@H]2C[C@H](O)[C@H](O[C@@H]3O[C@H](CO)[C@@H](O)[C@H](O)[C@H]3O)[C@@H](C)O2)[C@@H](C)O1 [Deslanoside]
- Half-life [1]: 33 h
- Onset (m) [1]: 10-30 m
- Peak [1]: 1 to 2 h

Compound: C[C@H]1O[C@@H](O[C@H]2[C@@H](O)C[C@H](O[C@H]3[C@@H](O)C[C@H](O[C@H]4CC[C@@]5(C)[C@H](CC[C@@H]6[C@@H]5C[C@@H](O)[C@]5(C)[C@@H](C7=CC(=O)OC7)CC[C@]65O)C4)O[C@@H]3C)O[C@@H]2C)C[C@H](O)[C@@H]1O [Digoxin, digoxin]
- proliferation of T cells in response to stimulation through the T cell receptor [2]: did not alter proliferation
- Serum cytokine levels (TNF, IL-6 and IL-1beta) versus vehicle [3]: similar
- Partition Coefficient [4]: 81.5
- TNF-mediated NFκB activation (luciferase light units) [5]: reduced TNF-mediated NFκB activation in a dose-dependent fashion
- average clinical arthritis scores compared to vehicle, prevention study [6]: significantly reduced
- Half-life [1]: 36 h

Compound: CC(=O)O[C@H]1C[C@H](O[C@H]2[C@@H](O)C[C@H](O[C@H]3[C@@H](O)C[C@H](O[C@H]4CC[C@@]5(C)[C@H](CC[C@@H]6[C@@H]5C[C@@H](O)[C@]5(C)[C@@H](C7=CC(=O)OC7)CC[C@]65O)C4)O[C@@H]3C)O[C@@H]2C)O[C@H](C)[C@H]1O[C@@H]1O[C@H](CO)[C@@H](O)[C@H](O)[C@H]1O [Lanatoside C]
- Partition Coefficient [4]: 16.2

Compound: CN(Cc1cnc2nc(N)nc(N)c2n1)c1ccc(C(=O)N[C@@H](CCC(=O)O)C(=O)O)cc1 [Methotrexate]
- patients having some response [7]: 70%
- onset of action ([7]; rheumatoid arthritis patients): 4-6 weeks

Compound: C[C@@H]1O[C@@H](O[C@H]2C[C@@H](O)[C@]3(CO)[C@H]4[C@H](O)C[C@]5(C)[C@@H](C6=CC(=O)OC6)CC[C@]5(O)[C@@H]4CC[C@]3(O)C2)[C@H](O)[C@H](O)[C@H]1O [Ouabain, ouabain]
- TNF-mediated activation of macrophage through TNFR [8]: inhibits
- proliferation of T cells in response to stimulation through the T cell receptor ([2]; non-TNFR family member, therapeutic concentrations): did not alter proliferation
- CD40L-mediated activation of macrophage through CD40 [9]: inhibits
- bioavailability by formulation [10]: higher bioavailability with injectable formulations
- Serum cytokine levels (TNF, IL-6 and IL-1beta) versus vehicle [3]: similar
- immune cell infiltrate into the joints (hematoxylin and eosin) [11]: decreased amounts of immune cell infiltrate
- Partition Coefficient [4]: very low
- Serum conc. [12]: 16 ng/mL
- TNF-mediated NFκB activation (luciferase light units) [5]: reduced TNF-mediated NFκB activation in a dose-dependent fashion
- anti-type II collagen IgG1 level relative to vehicle [13]: reduced levels
- anti-type II collagen IgM level relative to vehicle [13]: reduced levels
- disease and inflammation (clinical score, paw thickness), dosing every three days i.p. ([6]; 0.9 mg/kg digitoxin or 0.6 mg/kg ouabain, i.p., days −3, 0, 3, 6, 9, 12 after boost): significantly less disease and inflammation
- onset of collagen arthritis, dosing every three days sublingual ([6]; 0.9 mg/kg digitoxin or 0.6 mg/kg ouabain, sublingual, days −3, 0, 3, 6, 9, 12 after boost): significantly inhibited the onset of collagen arthritis; also recorded: effective in preventing
- development of CIA (Mean Visual Arthritis Score, Mean Paw Thickness), prevention study ([6]; daily i.p. from the day prior to induction, digitoxin 0.3 mg/kg, ouabain 0.03 mg/kg, proscillaridin […]): prevented the development of CIA
- average clinical arthritis scores compared to vehicle, prevention study [6]: significantly reduced
- prevention and treatment of collagen-induced arthritis (CIA) ([6]; murine model for rheumatoid arthritis, summary statement): potently prevent and treat
- Half-life [1]: 21 h
- Onset (m) [1]: 5-10 m
- Peak [1]: 0.5 to 2 h

Compound: C[C@]12CC[C@H](O)C[C@H]1CC[C@@H]1[C@@H]2CC[C@]2(C)[C@@H](c3ccc(=O)oc3)CC[C@]12O [bufalin]
- Serum cytokine levels (TNF, IL-6 and IL-1beta) versus vehicle [3]: similar
- TNF-mediated NFκB activation (luciferase light units) [5]: reduced TNF-mediated NFκB activation in a dose-dependent fashion
- average clinical arthritis scores compared to vehicle, prevention study [6]: significantly reduced

Compound: CC#C[C@]1(O)CC[C@H]2[C@@H]3CCC4=CC(=O)CCC4=C3[C@@H](c3ccc(N(C)C)cc3)C[C@@]21C [mifepristone]
- effect of pre-treatment on digitoxin-specific blockade of autoantibody production [14]: relieved
